Columns and labels:
tps1Δ cells = experiment: Growth rescue of tps1Δ strain on glucose (growth curves, 2% galactose medium); type: cell-based, S. cerevisiae; details: 100 μM compound, 2.5 mM glucose
Outline: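 Growth at 30 °C was tracked by OD595 readings every 30 min, with at least triplicate technical wells. Cells came from 2% galactose synthetic precultures, were washed and set to OD 0.1, and received compound 10 min ahead of the glucose addition.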

[1] = tested on: A549 lung adenocarcinoma cells; experiment: A549 cell proliferation / growth inhibition; type: cell-based, human; details: for Selected from primary screen for growth inhibition of A549 cells at 50 μM: 50 μM compound, 1 mM glucose; for Selected for having an IC50 ratio (10 mM glucose: 1 mM glucose) of A549 growth higher than WBC-A: IC50 on 10 mM vs 1 mM glucose, compared with WBC-A
Outline: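 A549 growth screened in RPMI with 1 mM glucose, compounds at 50 μM; cell number from counts of Hoechst-stained nuclei after 3 days. Growth curves also followed by IncuCyte phase-contrast confluency over 3–5 days (1000–1500 cells/well), DMSO ≤0.1%, ≥4 technical repeats.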

| SMILES | Rescue of the tps1Δ strain on 2.5 mM glucose at 100 μM (tps1Δ cells) | Selected from primary screen for growth inhibition of A549 cells at 50 μM [1] | Selected for having an IC50 ratio (10 mM glucose: 1 mM glucose) of A549 growth higher than WBC-A [1] |
| --- | --- | --- | --- |
| CCCn1c(Sc2nc(C)nc3scc(-c4cccs4)c23)nnc1-c1ccncc1 [34C] | No | Yes | Lower IC50 ratio |
| Cc1nc(SCCC(N)=O)c2c(-c3cccs3)csc2n1 [4B] | No | No |  |
| Cc1sc2nc(-c3cccnc3)nc(SCCO)c2c1-c1ccccc1 [13C] | No | Yes | Lower IC50 ratio |
| Cc1ccc(-c2csc3ncnc(Sc4nnnn4C)c23)cc1 [57A] | No | Yes | Lower IC50 ratio |
| Cc1sc2nc(CSc3ccccc3)nc(NCc3nnc4n3CCCCC4)c2c1C [9A] | No | No |  |
| Cc1nc(SCC(=O)N2CC(C)OC(C)C2)c2c(-c3cccs3)csc2n1 (centres unmarked) [5B] | Yes | No |  |
| CSc1nc(SCCO)c2c3c(sc2n1)COC(C)(C)C3 [81C] | No | Yes | Lower IC50 ratio |
| Cc1nc(SCCN2CCCS2(=O)=O)c2c(C)c(C)sc2n1 [83C] | No | No |  |
| CCc1nc(SCC(=O)OC)c2c3c(sc2n1)COC(C)(C)C3 [79C] | No | No |  |
| CCn1c(CCC(N)=O)nnc1Sc1nc(C)nc2scc(-c3cccs3)c12 [16C] | Yes | Yes | Lower IC50 ratio |
| Cc1nc(SCC(N)=O)c2c(-c3cccs3)csc2n1 [14A] | Yes | No |  |
| Cc1nnc(Sc2ncnc3scc(-c4ccccc4)c23)n1C [19A] | No | No |  |
| Cc1nc(SCC(=O)Nc2ccccc2-c2ccccc2)c2c(-c3cccs3)csc2n1 [13B] | No | Yes | Higher IC50 ratio, but false-positive |
| Cc1nnc(Sc2nc(CN3CCOCC3)nc3scc(-c4cccs4)c23)n1C [6C] | No | Yes | Lower IC50 ratio |
| Cc1nc(Sc2nnc[nH]2)c2cc(-c3ccccc3)sc2n1 [59A] | No | No |  |
| CCN(CC)Cc1nc(Sc2nnc(C3CC3)n2CCC(N)=O)c2c(C)c(C)sc2n1 [66A] | No | No |  |
| Cc1nc(SCC(=O)Nc2c(Cl)cccc2C(F)(F)F)c2c(-c3cccs3)csc2n1 [19C] | No | No |  |
| Cc1nc(Sc2nnc(NC3CC3)s2)c2c(-c3cccs3)csc2n1 [66C] | No | No |  |
| Cc1nc(SCCO)c2c3c(sc2n1)CCCC3 [22C] | No | No |  |

| SMILES | Rescue of the tps1Δ strain on 2.5 mM glucose at 100 μM (tps1Δ cells) | Selected from primary screen for growth inhibition of A549 cells at 50 μM [1] | Selected for having an IC50 ratio (10 mM glucose: 1 mM glucose) of A549 growth higher than WBC-A [1] |
| --- | --- | --- | --- |
| Cc1sc2nc(-c3cccs3)nc(Sc3nnc(C)n3C)c2c1C [16A] | No | No |  |
| OCCSc1ncnc2sc(-c3ccccc3)cc12 [30C] | No | No |  |
| Cc1ccc(-c2csc3ncnc(SCC(=O)N(C)Cc4ccco4)c23)cc1 [20B] | No | Yes | Lower IC50 ratio |
| Cc1nc(Sc2nnc(-c3ccco3)n2C)c2c(-c3cccs3)csc2n1 [25A] | No | No |  |
| Cc1nc(SCC(=O)N(C)CCC#N)c2c(-c3cccs3)csc2n1 [7B] | Yes | No |  |
| Cc1nc(SCC(=O)NC(C)(C)C)c2c(-c3cccs3)csc2n1 [32B] | Yes | Yes | Lower IC50 ratio |
| Cc1nc(N2CCN(CCO)CC2)c2c(-c3cccs3)csc2n1 [25B] | No | No |  |
| OCCSc1ncnc2sc3c(c12)CCCC3 [27C] | No | No |  |
| Cc1ccc(-c2csc3ncnc(SCCN4CCOCC4)c23)cc1 [9C] | No | Yes | Lower IC50 ratio |
| c1ccc(-c2cc3c(N4CCCC4c4nnc5n4CCCCC5)ncnc3s2)cc1 (centres unmarked) [22A] | No | No |  |
| c1nc(SCCN2CCOCC2)c2c3c(sc2n1)CCCC3 [84C] | No | No |  |
| Cc1nc(SCCN2CCOC2=O)c2c(-c3cccs3)csc2n1 [26C] | Yes | No |  |
| Cc1nc(SCC(=O)OC(C)(C)C)c2c3c(sc2n1)CCCC3 [31C] | No | No |  |
| COC(=O)CSc1nc(C)nc2sc3c(c12)CCC3 [14C] | No | No |  |
| Cc1nc(SCC(=O)Nc2ccc(OC(F)(F)F)cc2)c2c(-c3cccs3)csc2n1 [5C] | No | Yes | Lower IC50 ratio |
| Cc1nc(Sc2nnc3n2CCCCC3)c2c(-c3cccs3)csc2n1 [A] | Yes | Yes |  |
| CC(=O)CSc1nc(C)nc2scc(-c3cccs3)c12 [26B] | No | No |  |
| CCCc1nnc(Sc2nc(C)nc3scc(-c4cccs4)c23)[nH]1 [50C] | Yes | Yes | Lower IC50 ratio |
